# Measured values as given in patent publication US6121241A, “Anticoagulant peptide aldehyde derivatives” (Gyogyszerkutato Intezet Kft., priority 1996, dated 2000).
# Counter-ions that a name gives are not always drawn. Like-named read-outs stand apart in the source and are kept apart here. Square brackets hold non-standard residues; d marks the D form. Peptide text beside a SMILES is read from it. * marks the point of attachment. 1Nal = N[C@@H](Cc1cccc2ccccc12)C(=O)O; Boc = CC(C)(C)OC(=O)*
# Columns and labels:
# fXa = fXa (Homo sapiens, UniProt P00742); conditions: Z-D-Arg-Gly-Arg-pNA substrate; according to the literature; read-out: IC50, amidolytic activity of fXa; cited from earlier work
# [1] = test system: citrate plasma coagulation (PT); experiment: Prothrombin time (PT) plasma clotting test; format: biochemical; conditions: concentration doubling clotting time
# Description: (§1) Anticoagutant activity (i.e. inhibition of the proteolytic reactions in the process) is measured by anticoagulant tests, e.g. by the thrombin time (TT), activated partial thromboplastin time (APTT) and prothrombin time (PT) tests [E. J. W. Bovie et al; Mayo Clinic Laboratory Manual of Hemostasis; W. B. Sanuders Co., Philadelphia (1971)]. Plasma, inhibited in spontaneous coagulation, e.g. citrate-plasma, is made to coagulate and the required coagulation time is measured. Upon the action of anticoagulants the coagulation time is prolonged proportionally to the inhibition of the reaction(s) in the process. The anticoagulant effect can be characterized by the substance concentration required to double the coagulation time compared to the control (IC50). The effect of anticoagulants on individual coagulant proteases is measured by the amidolytic method [R. Lottenberg et al., Methods in Enzymol. 80, 341 (1981); G. Cleason, Blood Coagulation and Fibrinolysis 5, 411 (1994)]. The isolated active factor (e.g. thrombin, fXa) and its chromogen or fluorogen peptide-amide substrate are reacted in the presence or absence of the inhibitor, resp. The enzyme inhibiting action is characterized by the inhibitory constant (IC50) measured during amidolysis.
# (§2) In the TT test coagulation is initiated by the thrombin added to the citrate plasma. In the system 22 pmol/mL of thrombin is functioning and in the presence of plasma components its inhibition can be measured on the fibrinogen (one of the natural substrates of thrombin) present In the APTT and PT tests the full coagulation process is made to proceed. Depending on the activator fX is activated by the extrinsic or intrinsic pathway. The generated fXa activates prothrombin to thrombin which, in turn, triggers plasma coagulation. In the test the coagulation time is prolonged if the enzymes or one of them is inhibited by the inhibitor. In the APTT and PT tests at most 40 pmole/ml Xa is generated (this is the full amount of factor X present in both systems) while 150 pmole/ml (APTT) and 350 pmole/ml (PT) are generated from thrombin [B Kaiser et al., Thromb. Res. 65, 157 (1992)].
# (§3) The in vitro anticoagulant effect of the compounds of general formula (I) was measured by the prothrombin time (PT), activated partial thromboplastin time (APTT) and thrombin time (TT) tests [D. Bagdy et at., Thromb. Haemost. 67, 325 (1992)]. The Xa-factor-inhibiting effect of the compounds was also determined by using the Bz-Ile-Glu-Gly-Arg-pNA chromogen substrate (see method M6).
# human factor Xa = molecular target: T1, human factor Xa (Homo sapiens, UniProt P00742); experiment: Inhibition of the amidolytic effect of factor Xa in solution on Bz-Ile-Glu-Gly-Arg-pNA (method M6); format: biochemical
# T1 construct: purchased SIGMA
# Description: as §1, §3
# Assay of the Inhibition of Factor Xa in Solution on a 96-well Microtiter Plate
# a) 1.3 U/mL factor Xa (human, SIGMA), 0.1-1.0-10 and 100 μg/mL solutions in phosphate buffer (0.1 M sodium phosphate and 0.05 M sodium chloride, pH 7.4) of the peptide inhibitors and […] solutions of the substrate Bz-Ile-Glu-Gly-Arg-pNA in distilled water are used.
# b) Three reaction mixtures are prepared from the control and each peptide solution. 30 μL each of the peptide and the buffer, serving as control, 30 μL factor Xa, 90 μL butter and 150 μL substrate are placed in the wells of the plate, then after 10 minutes the extinction values are read at 405 nm The procedure is continued as described in Method M2, point c).
# [2] = test system: citrate plasma coagulation (APTT); experiment: Activated partial thromboplastin time (APTT) plasma clotting test; format: biochemical; conditions: concentration doubling clotting time
# Description: as §1, §2, §3
# thrombin [3] = molecular target: T2, thrombin (Homo sapiens, UniProt P00734); experiment: Thrombin time (TT) plasma clotting test; format: biochemical; conditions: concentration doubling clotting time
# T2 construct: The isolated active factor (e.g. thrombin, fXa) and its chromogen or fluorogen peptide-amide substrate are reacted
# Description: as §1, §2, §3
# plasmin (PL) = plasmin (PL) (Homo sapiens, UniProt P00747); experiment: Fibrin-plate method, plasmin; format: biochemical; conditions: for IC50: fibrin-plate method, hydrolyzed area reduced by 50%
# Excerpt: (§4) The inhibitory effect of the new compounds of the invention on plasmin (PL) as well as on plasmin formation induced by tissue plasminagen activator (tPA) and urokinase (UK) was studied by the […] [D. Bagdy et al.; Thromb. Haemost. 67, 325 (1992)]. Compounds C1 and C3 served as controls. […] V. Jackson et al., J. Cardiovasc. Pharmacol. 21, 587 (1993)].
# (§5) ^a IC50 = peptide concentration (mM) where the hydrolyzed area o
# (§6) the fibrin plate is reduced by 50% compared to the control
# urokinase (UK) = urokinase (UK) (Homo sapiens, UniProt P00749); experiment: Fibrin-plate method, plasmin formation induced by urokinase; format: biochemical; conditions: for IC50: fibrin-plate method, hydrolyzed area reduced by 50%
# Excerpt: as §4, §5, §6
# [4] = molecular target: tissue plasminogen activator (tPA) (Homo sapiens, UniProt P00750); experiment: Fibrin-plate method, plasmin formation induced by tPA; format: biochemical; conditions: for IC50: fibrin-plate method, hydrolyzed area reduced by 50%
# Excerpt: as §4, §5, §6
# [5] = test system: citrate plasma coagulation (APTT); conditions: Table 1; published value; read-out: B: IC50, APTT; cited from earlier work
# [6] = test system: citrate plasma coagulation (PT); conditions: Table 1; published value; read-out: B: IC50, PT; cited from earlier work
# thrombin [7] = molecular target: T2, thrombin; conditions: specific fXa inhibitors, literature; cited from earlier work
# [8] = molecular target: T3, fibrin-gel bound thrombin (Homo sapiens, UniProt P00734); experiment: Inhibition of thrombin bound to fibrin-gel (methods M4, M5); format: biochemical; conditions: Tos-Gly-Pro-Arg-pNA substrate
# T3 construct: Here prothrombin is converted to thrombin; purchased SIGMA
# Description: (§7) The plasma clot was obtained by the recalcification of platelet-rich human citrate plasma and fibrin gel by the coagulation of human fibrinogen with human thrombin Z-D-Arg-Gly-Arg-pNA and Tos Gly-Pro-Arg-pNA were used as substrates for measuring the activity of factor Xa and thrombin (methods M1-M5).
# Preparation of Fibrin-Gel
# a) 200 μL of 6 mg/mL human fibrinogen (SIGMA), 25 μL of 25 NIH U/mL human thrombin (SIGMA) and 40 μL of 100 mM calcium chloride solution are placed in each reaction vessel and the mixtures are stored for one hour at 20-22° C. The fibrin formed is rinsed mildly with 3×2 ml of isotonic saline solution followed by sedimentation to remove the thrombin content of the solution. The efficacy of rinsing is controlled by the process described in Method M1, point c).
# Assay of the Inhibition of Thrombin Bound to Fibrin-Gel
# a) 0.1-1.0-10 and 100 μg/ml solutions are prepared with Hepes/NaCl buffer (0.01 M Hepes and 0.1 M sodium chloride, pH=7.4).
# b) Thereafter the procedure described in Method M3, point b) is followed.
# [9] = molecular target: T4, plasma clot entrapped thrombin (Homo sapiens, UniProt P00734); experiment: Inhibition of thrombin entrapped in plasma clot (methods M1, M3); format: biochemical; conditions: platelet-rich human plasma clot; Tos-Gly-Pro-Arg-pNA substrate
# T4 construct: Here prothrombin is converted to thrombin; from tissue; host or cells: clot of recalcified platelet-rich human citrate plasma
# Description: as §7
# Preparation of Plasma Clot
# a) Platelet-rich plasma (PRP) is prepared by centrifuging a 9:1 mixture of human blood and 3.8% aqueous sodium citrate solution (1/2) for 5 minutes at 240×g.
# b) 200 μL of PRP are placed in each reaction vessel, 80 μL of 40 mM calcium chloride solution is added and the mixture is left to stand at room temperature for one hour. The plasma clot formed is rinsed mildly with 6×2 ml of 0.9% sodium chloride solution followed by 5 minute sedimentation to remove the dissolved enzymes (factor Xa and thrombin). The thrombin content of the washings is assayed as follows.
# c) To 400 μL of washing liquid 100 μL of 1 mM Tos-Gly-Pro-Arg-pNA substrate solution is added and the mixture is incubated for 30 minutes at 37° C., then the reaction is stopped by the addition of 100 μL of 50% acetic acid. 150 μL portions of this mixture are transferred into the wells of the 96-well microtiter plate and the extinction is measured at 405 nm (ELISA READER SLT Laborinstrument GmbH, Austria). When the washing is successful, the extinction is less than 5% of the control
# Assay of the Inhibition of Thrombin Entrapped in Plasma Clot
# a) Peptide inhibitor solutions are prepared by the process described in Method M2, point a).
# b) After draining the washing liquid, 400 μL of the peptide solution (3 parallel samples for each concentration) and 400 μL of buffer, serving as control, are placed on the clot (Method M1) and the mixture is incubated for 5 minutes at 37° C. Thereafter 100 μL of […] Tos-Gly-Pro-Arg-pNA substrate solution is added and incubation at 37° C. is continued for further 30 minutes, then the reaction is stopped by the addition of 100 μL of 50% acetic acid. The operation is continued as described in Method M2, point c).
# [10] = Table 1, Bz-Ile-Glu-Gly-Arg-pNA chromogen substrate, read-out: A: IC50 (fXa inhibiting effect)
# [11] = Table 1, read-out: B: IC50, APTT
# [12] = related to the activity of C1 (1/IC50 = 1)
# [13] = Table 2, Bz-Ile-Glu-Gly-Arg-pNA, isolated human factor Xa, read-out: B: IC50 (factor Xa inhibiting effect)
# [14] = Table 2, read-out: A: IC50, APTT
# T1 sequence (P00742 235-488 limits assumed): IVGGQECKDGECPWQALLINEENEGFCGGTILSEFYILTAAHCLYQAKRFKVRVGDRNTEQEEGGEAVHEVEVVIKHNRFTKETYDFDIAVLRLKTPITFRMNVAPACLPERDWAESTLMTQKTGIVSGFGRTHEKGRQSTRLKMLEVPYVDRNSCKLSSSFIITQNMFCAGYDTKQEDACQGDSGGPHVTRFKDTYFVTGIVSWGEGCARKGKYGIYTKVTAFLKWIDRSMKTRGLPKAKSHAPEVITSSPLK
# T1 sequence (P00742 41-179 partner limits assumed): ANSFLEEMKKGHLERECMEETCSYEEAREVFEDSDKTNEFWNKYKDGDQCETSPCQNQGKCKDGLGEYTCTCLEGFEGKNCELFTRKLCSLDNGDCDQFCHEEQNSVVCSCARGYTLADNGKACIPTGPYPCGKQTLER
# tissue plasminogen activator (tPA), sequence (P00750 36-562, species assumed): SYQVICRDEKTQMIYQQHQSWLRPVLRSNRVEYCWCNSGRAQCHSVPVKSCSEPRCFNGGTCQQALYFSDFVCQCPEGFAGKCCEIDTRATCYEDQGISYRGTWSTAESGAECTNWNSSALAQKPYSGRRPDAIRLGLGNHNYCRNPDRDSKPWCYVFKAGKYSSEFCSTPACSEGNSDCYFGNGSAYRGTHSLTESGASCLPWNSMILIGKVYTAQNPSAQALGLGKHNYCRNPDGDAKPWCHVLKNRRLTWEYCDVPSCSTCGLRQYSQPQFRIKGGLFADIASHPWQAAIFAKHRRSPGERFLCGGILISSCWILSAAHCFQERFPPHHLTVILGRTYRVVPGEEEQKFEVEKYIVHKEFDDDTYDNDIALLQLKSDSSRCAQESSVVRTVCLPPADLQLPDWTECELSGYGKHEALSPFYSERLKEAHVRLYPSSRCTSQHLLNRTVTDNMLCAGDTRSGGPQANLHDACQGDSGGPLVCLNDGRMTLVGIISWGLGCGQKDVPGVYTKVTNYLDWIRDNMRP
# plasmin (PL), sequence (P00747 581-810 limits assumed, species assumed): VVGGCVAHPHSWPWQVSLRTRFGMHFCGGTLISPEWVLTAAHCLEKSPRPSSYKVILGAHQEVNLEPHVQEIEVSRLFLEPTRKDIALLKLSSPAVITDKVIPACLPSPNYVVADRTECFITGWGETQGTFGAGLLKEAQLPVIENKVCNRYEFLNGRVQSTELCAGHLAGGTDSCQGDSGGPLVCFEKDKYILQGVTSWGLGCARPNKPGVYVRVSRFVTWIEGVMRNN
# plasmin (PL), sequence (P00747 97-580 partner limits assumed, species assumed): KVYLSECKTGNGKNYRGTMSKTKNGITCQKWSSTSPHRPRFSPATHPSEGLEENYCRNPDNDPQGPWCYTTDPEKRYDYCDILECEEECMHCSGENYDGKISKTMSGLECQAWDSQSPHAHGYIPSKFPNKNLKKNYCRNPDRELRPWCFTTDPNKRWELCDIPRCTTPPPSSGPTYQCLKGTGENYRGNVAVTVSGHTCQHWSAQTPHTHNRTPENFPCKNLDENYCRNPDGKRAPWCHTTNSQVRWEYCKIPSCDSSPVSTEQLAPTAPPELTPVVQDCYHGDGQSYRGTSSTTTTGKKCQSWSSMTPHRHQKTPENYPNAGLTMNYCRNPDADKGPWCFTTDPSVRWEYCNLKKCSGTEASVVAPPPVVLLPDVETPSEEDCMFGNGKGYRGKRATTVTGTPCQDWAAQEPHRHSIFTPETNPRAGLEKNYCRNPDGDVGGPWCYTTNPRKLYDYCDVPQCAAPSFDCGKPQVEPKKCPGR
# fXa, sequence (P00742 235-488 limits assumed): as the sequence (P00742 235-488 limits assumed) above
# fXa, sequence (P00742 41-179 partner limits assumed): as the sequence (P00742 41-179 partner limits assumed) above
molecule,measurement,setting,value
4-MeP-Asp-Pro-Arg-H [Compound C3],IC50,fXa,57 nM
same,IC50,"[1]; Table 1, read-out: B: IC50, PT",19.3 µM
same,IC50,human factor Xa; [10],64 nM
same,IC50,[2]; [11],4590 nM
same,IC50,"thrombin [3]; Table 1, read-out: B: IC50, TT",870 nM
CC(C)(C)OC(=O)N[C@H](Cc1ccccc1)C(=O)N1CCC[C@H]1C(=O)N[C@H](C=O)CCCNC(=N)N [Boc-D-Phe-Pro-Arg-H],IC50,plasmin (PL),12 µM
same,"B: relative efficacy, PL",plasmin (PL); [12],4.5
same,IC50,urokinase (UK),3 µM
same,"B: relative efficacy, UK",urokinase (UK); [12],27.3
same,IC50,[4],6 µM
same,"B: relative efficacy, tPA",[4]; [12],22.0
"N=C(N)NCCC[C@@H](C=O)NC(=O)[C@H]1CCCN1C(=O)C(O)C1CCCC1.N=C(N)NCCC[C@@H](C=O)NC(=O)[C@H]1CCCN1C(=O)C(O)C1CCCC1.O=S(=O)(O)O (stereo partly drawn) [Compound 2, D-2-Cyclopentyl-2-hydroxyacetyl-L-prolyl-L-arginine aldehyde hemisulfate]",IC50,"[1]; Table 2, read-out: A: IC50, PT",2.03 µM
same,"B: relative efficacy, PL",plasmin (PL),0.13
same,IC50,plasmin (PL),390 µM
same,"times lower activity than compound C3, first enzyme (PL)",plasmin (PL); versus C3 of Table 4,7.5
same,"B: relative efficacy, UK",urokinase (UK),0.6
same,IC50,urokinase (UK),137 µM
same,"times lower activity than compound C3, third enzyme (UK)",urokinase (UK); versus C3 of Table 4,39
same,"B: relative efficacy, tPA",[4],1.2
same,IC50,[4],112 µM
same,"times lower activity than compound C3, second enzyme (tPA)",[4]; versus C3 of Table 4,12
same,IC50,human factor Xa; [13],107 nM
same,IC50,[2]; [14],710 nM
same,IC50,"thrombin [3]; Table 2, read-out: A: IC50, TT",100 nM
"CC(=N)N1CC[C@H](Oc2ccc([C@H](Cc3ccc4ccc(C(=N)N)cc4c3)C(=O)O)cc2)C1 [Compound C2, (+)-(2S)-2-[4[[(3S)-1-acetimidoyl-3-pyrrolidinyl]oxy]phenyl]-3-[7[amidino-2-naphthyl]-propionic acid hydrochloride pentahydrate]",IC50,[5],970 nM
same,IC50,[6],520 nM
same,activity in the TT test,thrombin [7],fail to exert any activity
"CC(C)(C)OC(=O)N[C@H](Cc1ccccc1)C(=O)N[C@@H](Cc1cccc2ccccc12)C(=O)N[C@H](C=O)CCCN=C(N)N [Compound C4, Boc-D-Phe-Nal(1)-Arg-H] (Boc-[dF]-[1Nal]-Arg-aldehyde)",IC50,fXa,30 nM
same,IC50,"[1]; Table 1, read-out: B: IC50, PT",53.6 µM
same,IC50,human factor Xa; [10],86 nM
same,IC50,[2]; [11],9960 nM
same,IC50,"thrombin [3]; Table 1, read-out: B: IC50, TT",17200 nM
"NC(N)=NCCC[C@@H](C=O)NC(=O)[C@@H]1CCCN1C(=O)[C@H](O)C1CCCCC1 [Compound C5, D-Hma-Pro-Arg-H]",IC50,[8],220 nM
same,IC50,"[1]; Table 2, read-out: A: IC50, PT",2.14 µM
same,IC50,[9],270 nM
same,IC50,human factor Xa; [13],247 nM
same,IC50,[2]; [14],790 nM
same,IC50,"thrombin [3]; Table 2, read-out: A: IC50, TT",220 nM
"TAP: 60-member polypeptide isolated from tick, fXa inhibitor (YNRLCIKPRDWIDECDSNEGGERAYFRNGKGGCDSFWICPEDHTGADYYSSYRDCFNACI; UniProt P17726 1-60, looked up)",activity in the TT test,thrombin [7],fail to exert any activity
